Converted amounts (≈) assume the structure as drawn. Read-outs that look alike come from different tables or passages of the source.
Legend:
[1] = tested on: Mouse P388 leukemia cells; assay: Cytotoxicity Testing: 50% growth-inhibiting concentration, MTT method; assay type: cell-based; conditions: read-out: in vitro IC50 (50% growth-inhibiting concentration)
Description: Mouse P388 leukemia cells were used as cancer cells for this test. The cancer cells were incubated in RPMI-1640 medium containing 5 μM 2-mercaptoethanol and 10% fetal calf serum. More specifically, the cancer cells were seeded in a 96-well microplate in an amount of 1×10^4cell/50 μl/well, 25 μl/well of an aqueous solution of the test compound mentioned below (4 μg/ml) were added to each well, and the cells were incubated therein for 2 days at 37° C. After the incubation, the number of the living cells was counted using the MTT method and a dose-reaction curve was formed from the counted data. Based on the curve, the 50% growth-inhibiting concentration (IC50) of the test compound was calculated. As a comparative compound, Combretastatin A-4 was used.

Colon 26 = assay: Evaluation of Antitumor Activity: Colon 26 inoculated sc into CD2F1 mice; assay type: in vivo; conditions: tumor volume 21 days after the day of administration
Description: Colon 26 was inoculated sc into CD2F1 mice. After a week, the size of the tumor was measured and the volume of the tumor was calculated. Mice were selected on the basis of the volume of the tumor and administration of drug was begun. Twenty-one days after the day of administration, the size of the tumor was measured and the volume of the tumor was calculated. The inhibition ratio of growth of tumor (I.R.) was calculated as shown below. I.R.(%)={1-(Average Tumor Volume of Treated Mice)/(Average Tumor Volume of Control Mice)}×100

[2] = Solubility in phosphate buffer (pH 7.0), HPLC of supernatant; assay type: physicochemical
Description: An excess amount of each sample was dissolved in 0.1 ml of phosphate buffer (PH 7.0). The mixture was sonicated and centrifuged. The supernatant was subjected to HPLC and the solubility was measured.

[3] = 48 h, mouse P388 leukemia cells, 2 days at 37° C., MTT method
[4] = 40 mg/day, once a day on day 1, day 5 and day 7, perorally
[5] = 40 mg/day, once a day on day 1, day 5 and day 7, intravenously
[6] = aqueous buffer, pH 7.0, read-out: Solubility in Phosphate Buffer (PH 7.0)

COc1cc(/C=C\c2ccc(Cl)c(N)c2)cc(OC)c1OC [(Z)-1-(3-amino-4-chlorophenyl)-2-(3,4,5-trimethoxyphenyl)ethene] gave an IC50 ([1]; Mus musculus, P388, 48 h) of 20 ng/mL (≈ 0.0625 µM).
In the case of COc1cc(/C(C#N)=C\c2ccc(C)c(N)c2)cc(OC)c1OC [(E)-3-(3-amino-4-methylphenyl)-2-(3,4,5-trimethoxyphenyl)-prop-2-ene-nitrile], the IC50 [1, 3] was 2 ng/mL (≈ 0.00617 µM) and the “in vivo I.R. (inhibition ratio of growth of tumor)” value (Colon 26; [4]) was 41.0%.
With COc1cc(/C=C\c2ccc(C)c(N)c2)cc(OC)c1OC [(Z)-1-(3-amino-4-methylphenyl)-2-(3,4,5-trimethoxyphenyl)ethene] the IC50 ([1]; Mus musculus, P388, 48 h) was 3.5 ng/mL (≈ 0.0117 µM) and the “in vivo I.R. (inhibition ratio of growth of tumor)” value (Colon 26; [5]) was 61.6%.
In the case of COc1ccc(/C=C\c2cc(OC)c(OC)c(OC)c2)cc1O [Combretastatin A-4, reference compound], the IC50 [1, 3] was 0.2 ng/mL (≈ 0.000632 µM), the “in vivo I.R. (inhibition ratio of growth of tumor)” value (Colon 26; [4]) was 4.6% and the solubility ([2]; pH 7, aqueous buffer) was less than 100 µg/mL.
For COc1ccc(/C=C(/C#N)c2cc(OC)c(OC)c(OC)c2)cc1N [(E)-3-(3-amino-4-methoxyphenyl)-2-(3,4,5-trimethoxyphenyl)-prop-2-ene-nitrile], the IC50 [1, 3] was 0.2 ng/mL (≈ 0.000588 µM), the “in vivo I.R. (inhibition ratio of growth of tumor)” value (Colon 26; 10 mg/day, once a day from day 1 to day 10, intravenously) was 83.4% and the solubility [2, 6] was 1700 µg/mL (≈ 4990 µM).
In the case of COc1ccc(/C=C\c2cc(OC)c(OC)c(OC)c2)cc1N [(Z)-1-(3-Amino-4-methoxyphenyl)-2-(3,4,5-trimethoxyphenyl)ethene], the IC50 [1, 3] was 0.2 ng/mL (≈ 0.000634 µM), the “in vivo I.R. (inhibition ratio of growth of tumor)” value (Colon 26; [5]) was 69.5% and the solubility [2, 6] was 34000 µg/mL (≈ 108000 µM).
In the case of COc1cc(/C(C#N)=C\c2ccc(Cl)c(N)c2)cc(OC)c1OC [(E)-3-(3-amino-4-chlorophenyl)-2-(3,4,5-trimethoxyphenyl)-prop-2-ene-nitrile], the IC50 [1, 3] was 1.8 ng/mL (≈ 0.00522 µM) and the “in vivo I.R. (inhibition ratio of growth of tumor)” value (Colon 26; 80 mg/day, once a day on day 1, day 5 and day 7, perorally) was 23.7%.

Reference: patent US5731353A, “Stilbene derivatives and pharmaceutical compositions containing them” (Ajinomoto Co., Inc., priority 1993, dated 1998)
